Calls of active or inactive are those of the source. No cut-off for these calls is given here.
Columns and labels:
[1] = molecular target: Nucleolar protein 56 (Mus musculus) (UniProt Q9D6Z1); assay: Inhibition of Nop56 in mouse C2C12 cells assessed as reduction in phospho-sites occupancy at 4 uM after 5 hrs by SILAC based LC-MS/MS analysis relative to control; assay type: cell-based
[2] = molecular target: Nucleoprotein TPR (Mus musculus) (UniProt F6ZDS4); assay: Inhibition of nucleoprotein TPR in mouse C2C12 cells assessed as reduction in phospho-sites occupancy at 4 uM after 5 hrs by SILAC based LC-MS/MS analysis relative to control; assay type: cell-based
[3] = molecular target: Survival motor neuron protein (Mus musculus) (UniProt P97801); assay: Inhibition of survival motor neuron protein in mouse C2C12 cells assessed as reduction in phospho-sites occupancy at 4 uM after 5 hrs by SILAC based LC-MS/MS analysis relative to control; assay type: cell-based
[4] = molecular target: DNA topoisomerase 2-beta (Mus musculus) (UniProt Q64511); assay: Inhibition of DNA topoisomerase 2-beta in mouse C2C12 cells assessed as reduction in phospho-sites occupancy at 4 uM after 5 hrs by SILAC based LC-MS/MS analysis relative to control; assay type: cell-based
[5] = molecular target: DNA polymerase delta subunit 3 (Mus musculus) (UniProt Q9EQ28); assay: Inhibition of Pold3 in mouse C2C12 cells assessed as reduction in phospho-sites occupancy at 4 uM after 5 hrs by SILAC based LC-MS/MS analysis relative to control; assay type: cell-based
[6] = molecular target: Zinc finger and BTB domain-containing protein 7A (Mus musculus) (UniProt O88939); assay: Inhibition of Zbtb7a in mouse C2C12 cells assessed as reduction in phospho-sites occupancy at 4 uM after 5 hrs by SILAC based LC-MS/MS analysis relative to control; assay type: cell-based
Kinectin (Mus musculus) = Kinectin (Mus musculus) (UniProt Q61595); assay: Inhibition of Ktn1 in mouse C2C12 cells assessed as reduction in phospho-sites occupancy at 4 uM after 5 hrs by SILAC based LC-MS/MS analysis relative to control; assay type: cell-based
[7] = molecular target: Enhancer of mRNA-decapping protein 4 (Mus musculus) (UniProt Q3UJB9); assay: Inhibition of Edc4 in mouse C2C12 cells assessed as reduction in phospho-sites occupancy at 4 uM after 5 hrs by SILAC based LC-MS/MS analysis relative to control; assay type: cell-based
Striatin (Mus musculus) = Striatin (Mus musculus) (UniProt O55106); assay: Inhibition of Stria-tin in mouse C2C12 cells assessed as reduction in phospho-sites occupancy at 4 uM after 5 hrs by SILAC based LC-MS/MS analysis relative to control; assay type: cell-based
[8] = molecular target: Rho GTPase-activating protein 35 (Mus musculus) (UniProt Q91YM2); assay: Inhibition of Arhgap35 in mouse C2C12 cells assessed as reduction in phospho-sites occupancy at 4 uM after 5 hrs by SILAC based LC-MS/MS analysis relative to control; assay type: cell-based
[9] = molecular target: Acetyl-CoA carboxylase 1 (Mus musculus) (UniProt Q5SWU9); assay: Inhibition of Acetyl-CoA carboxylase 1 in mouse C2C12 cells assessed as reduction in phospho-sites occupancy at 4 uM after 5 hrs by SILAC based LC-MS/MS analysis relative to control; assay type: cell-based
[10] = molecular target: Transcriptional regulator ATRX (Mus musculus) (UniProt Q61687); assay: Inhibition of ATRX in mouse C2C12 cells assessed as reduction in phospho-sites occupancy at 4 uM after 5 hrs by SILAC based LC-MS/MS analysis relative to control; assay type: cell-based
[11] = molecular target: Fermitin family homolog 2 (Mus musculus) (UniProt Q8CIB5); assay: Inhibition of Fermt2 in mouse C2C12 cells assessed as reduction in phospho-sites occupancy at 4 uM after 5 hrs by SILAC based LC-MS/MS analysis relative to control; assay type: cell-based
[12] = molecular target: 182 kDa tankyrase-1-binding protein (Mus musculus) (UniProt P58871); assay: Inhibition of tankyrase-1-binding protein in mouse C2C12 cells assessed as reduction in phospho-sites occupancy at 4 uM after 5 hrs by SILAC based LC-MS/MS analysis relative to control; assay type: cell-based
[13] = molecular target: Dihydropyrimidinase-related protein 3 (Mus musculus) (UniProt Q62188); assay: Inhibition of Dihydropyrimidinase-related protein 3 in mouse C2C12 cells assessed as reduction in phospho-sites occupancy at 4 uM after 5 hrs by SILAC based LC-MS/MS analysis relative to control; assay type: cell-based
[14] = molecular target: 1-phosphatidylinositol 4,5-bisphosphate phosphodiesterase delta-3 (Mus musculus) (UniProt Q8K2J0); assay: Inhibition of Plcd3 in mouse C2C12 cells assessed as reduction in phospho-sites occupancy at 4 uM after 5 hrs by SILAC based LC-MS/MS analysis relative to control; assay type: cell-based
[15] = molecular target: Tight junction protein 2 (Mus musculus) (UniProt Q9Z0U1); assay: Inhibition of Tjp2 in mouse C2C12 cells assessed as reduction in phospho-sites occupancy at 4 uM after 5 hrs by SILAC based LC-MS/MS analysis relative to control; assay type: cell-based
[16] = molecular target: Protein IMPACT (Mus musculus) (UniProt O55091); assay: Inhibition of Impact in mouse C2C12 cells assessed as reduction in phospho-sites occupancy at 4 uM after 5 hrs by SILAC based LC-MS/MS analysis relative to control; assay type: cell-based
[17] = molecular target: Cyclin-dependent kinase 4 (Mus musculus) (UniProt P30285); assay: Inhibition of Cdk4 in mouse C2C12 cells assessed as reduction in phospho-sites occupancy at 4 uM after 5 hrs by SILAC based LC-MS/MS analysis relative to control; assay type: cell-based
[18] = molecular target: Phosducin-like protein 3 (Mus musculus) (UniProt Q8BVF2); assay: Inhibition of Phosducin-like protein 3 in mouse C2C12 cells assessed as reduction in phospho-sites occupancy at 4 uM after 5 hrs by SILAC based LC-MS/MS analysis relative to control; assay type: cell-based
[19] = molecular target: WASH complex subunit 2 (Mus musculus) (UniProt Q6PGL7); assay: Inhibition of Washc2 in mouse C2C12 cells assessed as reduction in phospho-sites occupancy at 4 uM after 5 hrs by SILAC based LC-MS/MS analysis relative to control; assay type: cell-based
[20] = molecular target: Unconventional myosin-XVIIIa (Mus musculus) (UniProt Q9JMH9); assay: Inhibition of Unconventional myosin-18a in mouse C2C12 cells assessed as reduction in phospho-sites occupancy at 4 uM after 5 hrs by SILAC based LC-MS/MS analysis relative to control; assay type: cell-based
[21] = molecular target: T1, Casein kinase 2 (Mus musculus) (UniProt Q60737+P67871+O54833+Q8CH19); assay: Inhibition of CK2 in mouse C2C12 cells assessed as reduction in CDC37 phosphorylation at S13 residues at 1 to 4 uM by Western blot analysis; assay type: cell-based; details: dose 1-4 µM
[22] = molecular target: T1, Casein kinase 2 (Mus musculus); assay: Inhibition of CK2 in mouse C2C12 cells assessed as reduction in CK2 substrates phosphorylation at 1 to 4 uM by Western blot analysis; assay type: cell-based; details: dose 1-4 µM
[23] = system: Golgi-specific brefeldin A-resistance guanine nucleotide exchange factor 1 (Mus musculus); assay: Inhibition of Gbf1 in mouse C2C12 cells assessed as reduction in phospho-sites occupancy at 4 uM after 5 hrs by SILAC based LC-MS/MS analysis relative to control

fold change (FC) [1]: 1.5 | fold change (FC) [2]: 1.51 | fold change (FC) [4]: 1.6 | fold change (FC) [5]: 1.66 | fold change (FC) [6]: 1.89 | fold change (FC) (Kinectin (Mus musculus)): 1.98 | fold change (FC) [7]: 2.17 | fold change (FC) (Striatin (Mus musculus)): 2.25 | fold change (FC) [8]: 2.58 | fold change (FC) [9]: 2.73 | fold change (FC) [10]: 2.83 | fold change (FC) [11]: 3.05 | fold change (FC) [12]: 3.06 | fold change (FC) [13]: 3.25 | fold change (FC) [14]: 3.31 | fold change (FC) [15]: 3.31 | fold change (FC) [16]: 3.44 | fold change (FC) [17]: 3.97 | fold change (FC) [18]: 4.01 | fold change (FC) [19]: 4.17 | fold change (FC) [20]: 5.23 | inhibition [21]: Active | inhibition [22]: Active | fold change (FC) [23]: 2.55
Structure (SMILES): COc1cc(/C=N/n2c(SC)nnc2-c2ccccc2)c(Br)cc1O
fold change (FC) [3]: 1.52

Reference: ChEMBL document CHEMBL4813950, “Comparing the efficacy and selectivity of Ck2 inhibitors. A phosphoproteomics approach” (Eur J Med Chem, 2021)
